Laboratory results taken from publication PMC11212140, “Molecular Bidents with Two Electrophilic Warheads as a New Pharmacological Modality” (ACS Central Science, 2024).

How the values were obtained:
Experiment in all cases: KiNativ profiling in H3255 cells
Type in all cases: cell-based, human
Erk5 = tested on: T1, Erk5; settings: 2.5 µM; Lys2; DLKPSNLLVNENCELK
T1 construct: purchased ActivX Biosciences (KiNativ)
Description: (§1) treatment. Cell viability was determined by using CellTiter-Glo (Promega #G7571) according to the manufacturer’s instructions, measuring luminescence using an Envision plate-reader (PerkinElmer Inc.). Dose-response curves were generated using non-linear regression curve fit in GraphPad Prism 9.2.0(GraphPad Software).
(§2) Cellular target engagement assays
(§3) After 6 hours treatment, cells were pelleted, washed with PBS once and lysed with IP lysis buffer (25mMTris-HCl pH 7.4, 150mM NaCl, 1 mM EDTA, 1% NP-40 and 5% glycerol) (Thermo Fisher Scientific, Cat#87788) containing protease/phosphatase inhibitor cocktail (Roche). The protein concentrations were measured by BCA analysis (Pierce). Cell lysates were incubated with 1 μM of biotin conjugated probe (bio-Osimertinib or bio-ZNL-0013) at 4 ℃ overnight, and incubated for 3 more hours at room temperature. Lysates with probe were then incubated with streptavidin beads (Thermo Fisher, #20349) for 2 hours at 4 ℃. The protein-probe complexes on the beads were then subjected to immunoblotting.
(§4) H3255 cells were plated with 6.5x10^6 per condition in fresh media in 15 cm plates and treated the 80% confluency for 2 hours with DMSO or 2.5 μM of ZNL-0056. To harvest cells, plates were washed 3 times with cold PBS, then collected by scraping into 4 mL of cold PBS containing protease and phosphatase inhibitors. Cells were pelleted by centrifugation at 1350 g at 4 ℃ for 5 minutes and immediately frozen in liquid nitrogen. The frozen samples were sent to ActivX Biosciences (La Jolla, CA) for the remainder of the KiNativ profiling experiment4.
(§5) Protein expression and purification
(§6) Human EGFR kinase domain (residues 696-1022) with T790M and V948R mutations was cloned with an N-terminal, protease cleavable His -GST tag. Recombinant protein was expressed in SF9 insect cells using baculovirus generated from the pFastBac system (Thermo Fisher) .
(§7) Briefly, cells at a density of ~2x10^6 cells/mL were infected with 1% (v/v) virus stock and grown for ~72 hours before harvesting and freezing the cell pellet . Infected cells were lysed in buffer A (50 mM Tris pH 8.0, 500 mM NaCl, 5% glycerol, 0.5 mM Tris(2-carboxyethyl)phosphine [TCEP]), ultracentrifuged at >200,000 rcf for 1 h, and the supernatant flo wed through Ni-NTA resin by gravity. The resin was washed with buffer A supplemented with 40 mM imidazole by […]

NDR2 = tested on: T2, NDR2; settings: 2.5 µM
T2 construct: purchased ActivX Biosciences (KiNativ)
Description: as §1, §2, §3, §4, §5, §6, §7

ROCK1, ROCK2 = settings: 2.5 µM; Lys2; DVKPDNMLLDK
Description: as §1, §2, §3, §4, §5, §6, §7

PCTAIRE2 = tested on: T3, PCTAIRE2; settings: 2.5 µM; Lys2; DLKPQNLLINEK
T3 construct: purchased ActivX Biosciences (KiNativ)
Description: as §1, §2, §3, §4, §5, §6, §7

SYK = tested on: T4, SYK; settings: 2.5 µM
T4 construct: purchased ActivX Biosciences (KiNativ)
Description: as §1, §2, §3, §4, §5, §6, §7

TAO2 = tested on: T5, TAO2; settings: 2.5 µM; Lys2; DVKAGNILLSEPGLVK
T5 construct: purchased ActivX Biosciences (KiNativ)
Description: as §1, §2, §3, §4, §5, §6, §7

JNK1, JNK2, JNK3 = settings: 2.5 µM; Lys2; DLKPSNIVVK
Description: as §1, §2, §3, §4, §5, §6, §7

MSK1 domain1 = tested on: T6, MSK1 domain1; settings: 2.5 µM; Lys2; DIKLENILLDSNGHVVLTDFGLSK
T6 construct: MSK1 domain1; purchased ActivX Biosciences (KiNativ)
Description: as §1, §2, §3, §4, §5, §6, §7

AMPKa1, AMPKa2 = settings: 2.5 µM
Description: as §1, §2, §3, §4, §5, §6, §7

ITPK1 = tested on: T7, ITPK1; settings: 2.5 µM; ATP; NFSAGTSDRESIFFNSHNVSKPESSSVLTELDKIEGVFERPSDEVIR
T7 construct: purchased ActivX Biosciences (KiNativ)
Description: as §1, §2, §3, §4, §5, §6, §7

MAST3 = tested on: T8, MAST3; settings: 2.5 µM; Lys2; DLKPDNLLITSLGHIK
T8 construct: purchased ActivX Biosciences (KiNativ)
Description: as §1, §2, §3, §4, §5, §6, §7

STLK5 = tested on: T9, STLK5; settings: 2.5 µM
T9 construct: purchased ActivX Biosciences (KiNativ)
Description: as §1, §2, §3, §4, §5, §6, §7

IKKa = tested on: T10, IKKa; settings: 2.5 µM; Lys2; DLKPENIVLQDVGGK
T10 construct: purchased ActivX Biosciences (KiNativ)
Description: as §1, §2, §3, §4, §5, §6, §7

CK1g3 = tested on: T11, CK1g3; settings: 2.5 µM; Lys2; DVKPENFLIGRPGNK
T11 construct: purchased ActivX Biosciences (KiNativ)
Description: as §1, §2, §3, §4, §5, §6, §7

PDK1 = tested on: T12, PDK1; settings: 2.5 µM; Lys1; EYAIKILEK
T12 construct: purchased ActivX Biosciences (KiNativ)
Description: as §1, §2, §3, §4, §5, §6, §7

SLK = tested on: T13, SLK; settings: 2.5 µM
T13 construct: purchased ActivX Biosciences (KiNativ)
Description: as §1, §2, §3, §4, §5, §6, §7

CK1g1, CK1g2, CK1g3 = settings: 2.5 µM; ATP Loop; KIGCGNFGELR
Description: as §1, §2, §3, §4, §5, §6, §7

MST4, YSK1 = settings: 2.5 µM; Lys2; DIKAANVLLSEQGDVK
Description: as §1, §2, §3, §4, §5, §6, §7

EGFR-L858R = tested on: T14, EGFR-L858R; settings: 2.5 µM; Activation Loop; AKLLGAEEK
T14 construct: purchased ActivX Biosciences (KiNativ)
Description: as §1, §2, §3, §4, §5, §6, §7

MAP3K4 = tested on: T15, MAP3K4; settings: 2.5 µM
T15 construct: purchased ActivX Biosciences (KiNativ)
Description: as §1, §2, §3, §4, §5, §6, §7

PKCa, PKCg = settings: 2.5 µM; Other; NLIPMDPNGLSDPYVKLK
Description: as §1, §2, §3, §4, §5, §6, §7

IKKb = tested on: T16, IKKb; settings: 2.5 µM
T16 construct: purchased ActivX Biosciences (KiNativ)

JAK1 domain1 = tested on: T17, JAK1 domain1; settings: 2.5 µM; Activation Loop; QLASALSYLEDKDLVHGNVCTKNLLLAR
T17 construct: JAK1 domain1; purchased ActivX Biosciences (KiNativ)

[1] = Activation Loop, YSVKVLPWLSPEVLQQNLQGYDAK

Structure (SMILES)	Inhibition (Erk5)	Inhibition (NDR2; Lys1, DTGHIYAMKILR)	Inhibition (NDR2; Lys2, DIKPDNLLLDAK)	Inhibition (ROCK1, ROCK2)	Inhibition (PCTAIRE2)	Inhibition (SYK; Activation Loop, ISDFGLSKALR)	Inhibition (SYK; Lys1, TVAVKILK)	Inhibition (TAO2)	Inhibition (JNK1, JNK2, JNK3)	Inhibition (MSK1 domain1)	Inhibition (AMPKa1, AMPKa2; Lys1, VAVKILNR)	Inhibition (AMPKa1, AMPKa2; Lys2, DLKPENVLLDAHMNAK)	Inhibition (ITPK1)	Inhibition (MAST3)	Inhibition (STLK5; [1])	Inhibition (STLK5; Lys2, SVKASHILISVDGK)	Inhibition (IKKa)	Inhibition (CK1g3)	Inhibition (PDK1)	Inhibition (SLK; Lys1, AQNKETSVLAAAKVIDTK)	further results
C=CC(=O)Nc1cc(C(=O)Nc2nc3cccc(C)c3n2[C@@H]2CCCCN(C(=O)C=C)C2)cs1 [ZNL-0056]	-18.2%	11.0%	3.3%	-10.4%	-15.1%	4.4%	4.7%	-4.5%	-5.1%	10.0%	20.9%	9.7%	-0.632%	3.9%	-9.2%	-41.2%	5.3%	18.0%	17.6%	-4.8%	Inhibition (SLK; Lys2, DLKAGNILFTLDGDIK): -22.3%; Inhibition (CK1g1, CK1g2, CK1g3): 13.6%; Inhibition (MST4, YSK1): -9.0%; Inhibition (EGFR-L858R): 97.2%; Inhibition (MAP3K4; Lys1, VYTCISVDTGELMAMKEIR): 16.4%; Inhibition (MAP3K4; Lys2, DIKGANIFLTSSGLIK): -19.0%; Inhibition (PKCa, PKCg): -17.5%; Inhibition (IKKb; Lys1, WHNQETGEQIAIKQCR): 11.2%; Inhibition (IKKb; Lys2, DLKPENIVLQQGEQR): 2.0%; Inhibition (JAK1 domain1): -24.3%
C=CC(=O)Nc1cc(Nc2nccc(-c3cn(C)c4ccccc34)n2)c(OC)cc1N(C)CCN(C)C [Osimertinib, osimertinib, reference compound]	-4.1%	-19.7%	-0.656%	-1.6%	2.6%	-19.6%	-0.9%	8.2%	13.4%	-10.4%	6.4%	-33.2%	22.9%	-21.8%	2.8%	3.2%	-19.3%	7.1%	-20.7%	-11.7%	Inhibition (SLK; Lys2, DLKAGNILFTLDGDIK): 8.3%; Inhibition (CK1g1, CK1g2, CK1g3): -14.3%; Inhibition (MST4, YSK1): -8.7%; Inhibition (EGFR-L858R): 98.2%; Inhibition (MAP3K4; Lys1, VYTCISVDTGELMAMKEIR): 0.9%; Inhibition (MAP3K4; Lys2, DIKGANIFLTSSGLIK): -3.4%; Inhibition (PKCa, PKCg): -21.6%; Inhibition (IKKb; Lys1, WHNQETGEQIAIKQCR): -16.0%; Inhibition (IKKb; Lys2, DLKPENIVLQQGEQR): -28.9%; Inhibition (JAK1 domain1): -25.4%
